Results on 4 molecules are retold here after patent publication US20100093642A1, “NOVEL POLYPEPTIDES” (priority 2006, published 2010).

For series [1], the system named is murine colon carcinoma cell line CT26. The format is cell-based. Conditions: 4 h. On the procedure:
The cytotoxic effects of the peptides on different human tumour cells were measured using the MTT colorimetric assay (Mosmann, 1983). MIT (3-(4-5-dimethylthiazol-2-yl)-2,5-diphenyl tetrazolium bromide) is a soluble tetrazolium salt yielding a yellow solution when prepared in media or salt solutions lacking phenol red. Dissolved MIT is converted to an insoluble purple formazan by cleavage of the tetrazolium ring by dehydrogenase enzymes. This water insoluble formazan can be solubilized using isopropanol or other solvents and the dissolved material is measured spectrophotometrically. The absorbance was measured as a function of concentration of converted dye. The conversion of the soluble dye to the insoluble purple formazan is utilized in assays for measurement of cell proliferation. […] We used this assay to measure the degree of cell death caused by the peptides.
CT26 and A20 were maintained in RPMI-1640 medium supplemented with 10% heat inactivated FBS and 1% L-glutamine in a humidified atmosphere of 5% CO2 at 37° C. The human embryonic fibroblast cell line, MRC-5, was cultured as a monolayer in MEM medium, under the same conditions as described for the tumour cell lines. CT26 and MRC-5 cells to be used in the assay were grown to a minimum of 75% confluency, trypsinated and split to single cell suspension, counted and centrifuged at 1500 rpm for 7 min. The cell pellet was resuspended to a concentration of 1-2×10^5 cells/ml in RPMI-1640 medium without FBS and L-glutamine-L-alanine (assay-medium). The A20 cells were grown in suspension and adjusted to a concentration of 6×10^5 cells/ml in assay medium. All cell lines were routinely tested for mycoplasma infection using a PCR-based mycoplasma detection kit (MycoSensor PCR Assay Kit, Stratagene), following the supplier's instructions. All cell lines were mycoplasma free.
The cytotoxicity was measured using the MTT method (Mosmann, 1983), with minor modifications. The adherent cells (CT26 and MRC-5) were applied in 96-well culture plates in a volume of 100 μl assay medium and incubated at 37° C. for 24 hours. The A20 cells were applied to the microtiter plates just prior to testing. The medium was removed and the cells were treated with 100 μl of peptide solution (concentrations ranging from 0 to 400 μg/ml), diluted in serum-free medium, and the plates were incubated at 37° C. for 4 hours. Cells treated with Triton X-100 (1%) were used as positive control (100% killing) whereas cells plus medium only were used as negative control. Following the incubation period, 10 and 20 μl MTT (5 mg/ml, dissolved in PBS) were added to each well in the adherent cells (CT26 and MRC-5) and the A20 cells, respectively. After further incubation for 2 hours, a volume of 70 μl of the supernatant was removed and 100 μl acid alcohol (0.04 M HCl in isopropanol) added to each well in the adherent cell lines. For the cells grown in suspension (A20), a volume of 130 μl of the supernatant was removed and 100 μl acid alcohol was added. The plates were placed on a shaker for 1 hour at room temperature and read spectrophotometrically at 590 nm in a microtiter plate reader (Thermomax Molecular devices, New Jersey, USA). Cell survival (%, averaging at least 2 parallels) and IC50 values were estimated as described above.

Series [2] concerns TNF-α. As to the kind of experiment: Inhibition of LPS induced TNF-α response in THP-1 cells (ELISA). The series is classed as cell-based, human. Conditions: Ratio TC50 (THP-1)/EC50 (anti-TNFα). On the procedure:
FIG. 12. Antiinnflammatory response measured as inhibition of tumor necrosis factor alpha (TNF-α) response in THP-1 cells after stimulation with LPS. THP-1 cells (1×10^6 cells/ml) were treated with P17 derivates in different concentrations for 1 hour, and subsequently stimulated with 100 ng/ml LPS for 6 hours. LPS was used as control for induction of TNF-α. (set as 100% response), RPMI media was used as negative (non-stimulated) control, and cycloheximide (Chx, 10 μg/ml) was used as a an inhibitory control for LPS induced TNF-α. The data presented are the average of two parallells. (A) The effect of the peptides P17 HC and P17 HC (1-20). (B) The effect of the peptides P17 HC (11-20) and P17 HC-Br.
The THP-1 cells (ATCC, TIB-202) were maintained in suspension in RPMI-1640 medium with 25 mM HEPES and 2 mM Glutamax I supplemented with 10% FBS (growth medium) in a humidified atmosphere of 5% CO2 at 37° C. Cells to be used in the assay were grown to a density of 8×10^5-1×10^6 cells/ml. The cells were centrifuged for 7 min at 200 g and the cell pellet was resuspended to a concentration of 10^6 cells/ml in RPMI-1640 with 10% FBS.
To allow examination of antiinflammatory effects of the peptides on basal and stimulated cytokine production, peptide-treated macrophages were cultured in the presence of LPS and the levels of TNF-α were measured. The primary screening was based on a mammalian cell line; the human THP-1 line. This line is of monocyte/macrophage origin and responds to various stimuli by increased production of cytokines, like TNF-α and the IL-1β, (Wang et al. 2000). To induce monocyte-macrophage differentiation, THP-1 cells were cultured in 96-well culture plates (10^6 cells/well) in a volume of 100 μl RPMI 1640 medium, containing 50 ng/ml PMA (which is known to induce the maturation of monocytes) and incubated in a humidified atmosphere of 5% CO2, at 37° C. for 48 hours. The medium was then removed and the cells were washed with PBS, added 100 μl fresh medium (without PMA) and incubated for another 24 hours. Medium was removed and the adherent macrophages were treated with 100 μl of peptide solution (concentrations ranging from 0 to 400 μg/ml), diluted in RPMI-1640 medium with 25 mM HEPES and 2 mM Glutamax I, but without […] (assay medium). After incubation at 37° C. for 1 hour, the cells were added LPS (0.1 μg/ml) and further incubated for 6 hours. […] TNF-α concentrations were quantified by the Human TNF-α ELISA MAX kit (BioLegend), according to the manufacturer's instructions. Duplicate readings for each standard, control and sample were recorded. The average absorbance for each set of standards, controls, and samples was calculated using a standard curve. Concentrations were determined by extrapolation on the standard curve.
(An ELISA detects its analyte on a solid surface through an enzyme-linked reagent.)

Residues, ends and D or L forms follow the SMILES beside them. No end group written: not given here. A value given as a limit tells only on which side of the number the result lay.

In series [1], `CC[C@H](C)[C@H](NC(=O)CNC(=O)[C@H](CO)NC(=O)[C@H](CCCCN)NC(=O)[C@@H](NC(=O)[C@H](C)NC(=O)[C@H](Cc1c[nH]cn1)NC(=O)[C@H](CO)NC(=O)[C@@H](NC(=O)[C@H](CCCCN)NC(=O)[C@H](Cc1c[nH]cn1)NC(=O)[C@H](Cc1ccccc1)NC(=O)[C@@H](NC(=O)[C@H](CCCCN)NC(=O)[C@H](CCCCN)NC(=O)[C@H](Cc1ccccc1)NC(=O)C(Cc1c[nH]c2ccc(Br)cc12)NC(=O)CN)[C@@H](C)O)C(C)C)C(C)C)C(=O)N[C@@H](Cc1c[nH]cn1)C(=O)N[C@@H](C)C(=O)O` (stereo partly drawn) [P17 HC-Br (1-20)] (HELM PEPTIDE1{G.[O=C(C(Cc1c[nH]c2ccc(Br)cc12)N[*:1])[*:2]].F.K.K.T.F.H.K.V.S.H.A.V.K.S.G.I.H.A}$$$$V2.0; N-terminus and C-terminus assumed) yielded an IC50 of 59.7 µM.
In series [1], `CC[C@H](C)[C@H](NC(=O)CNC(=O)[C@H](CO)NC(=O)[C@H](CCCCN)NC(=O)[C@@H](NC(=O)[C@H](C)NC(=O)[C@H](Cc1c[nH]cn1)NC(=O)[C@H](CO)NC(=O)[C@@H](NC(=O)[C@H](CCCCN)NC(=O)[C@H](Cc1c[nH]cn1)NC(=O)[C@H](Cc1ccccc1)NC(=O)[C@@H](NC(=O)[C@H](CCCCN)NC(=O)[C@H](CCCCN)NC(=O)[C@H](Cc1ccccc1)NC(=O)C(Cc1c[nH]c2ccc(Br)cc12)NC(=O)CN)[C@@H](C)O)C(C)C)C(C)C)C(=O)N[C@@H](Cc1c[nH]cn1)C(=O)N[C@@H](C)C(=O)NCC(=O)N[C@@H](CCC(N)=O)C(=O)N[C@@H](CCCNC(=N)N)C(=O)NCC(=O)N[C@@H](CS)C(=O)N[C@@H](CO)C(=O)N[C@@H](C)C(=O)N[C@@H](CC(C)C)C(=O)NCC(=O)N[C@@H](Cc1ccccc1)C(=O)O` (stereo partly drawn) [P17 HC-Br] (HELM PEPTIDE1{G.[O=C(C(Cc1c[nH]c2ccc(Br)cc12)N[*:1])[*:2]].F.K.K.T.F.H.K.V.S.H.A.V.K.S.G.I.H.A.G.Q.R.G.C.S.A.L.G.F}$$$$V2.0) came in with an IC50 of 33.1 µM. In addition, the “Therapeutic index TC50/EC50” value in series [2] was 46.5.
GWFKKTFHKVSHAVKSGIHA [P17 HC (1-20)]: the “Therapeutic index TC50/EC50” value in series [2] is recorded as >17.4.
For GWFKKTFHKVSHAVKSGIHAGQRGCSALGF [P17 HC], the IC50 in series [1] stood at 20.4 µM. Besides, the “Therapeutic index TC50/EC50” value in series [2] turned out to be 13.6.

The IC50 is the concentration needed to halve the response being measured. Low values mean higher potency, high ones lower potency.
